# Source: ChEMBL document CHEMBL4619814, “Identification and Development of 1,4-Diaryl-1,2,3-triazolo-Based Ureas as Novel FLT3 Inhibitors” (ACS Med Chem Lett, 2020)
# Active and inactive are the calls of the source. No cut-off for these calls is given here.
# Assays:
# KG-1 = assay: cells; conditions: Homo sapiens, KG-1, 72 h
# Description: Cytotoxicity against human KG1 cells assessed as reduction in cell viability incubated for 72 hrs by CCK8 assay
# MV4-11 [1] = assay: Induction of cell cycle arrest in human MV4-11 cells assessed as reduction in CDK4 expression at 0.16 to 100 nM by Western blot analysis; format: functional, cell-based
# MV4-11 [2] = assay: Induction of apoptosis in human MV4-11 cells assessed as viable cells at 100 nM incubated for 48 hrs by annexin V and 7-AAD staining based flow cytometry analysis (reference value: 90.47 %); format: functional; conditions: MV4-11, 48 h, read-out: Activity
# MV4-11 [3] = assay: Induction of cell cycle arrest in human MV4-11 cells assessed as G2/M phase at 100 nM incubated for 48 hrs by propidium iodide staining based flow cytometry analysis (reference value: 24.88 %); format: functional
# MV4-11 [4] = assay: Induction of apoptosis in human MV4-11 cells assessed as necrotic cells at 100 nM incubated for 48 hrs by annexin V and 7-AAD staining based flow cytometry analysis (reference value: 0.91 %); format: functional
# [5] = tested on: Receptor-type tyrosine-protein kinase FLT3 (Homo sapiens), P36888 [UNDEFINED MUTATION]; assay: Inhibition of FLT3 ITD mutant expressed in human MV4-11 cells assessed as reduction in STAT5 level at > 20 nM incubated for 6 hrs by Western blot analysis relative to control; format: cell-based
# [6] = Clearance in Sprague-Dawley rat at 25 mg/kg, po; format: ADME, organism-based; conditions: in vivo
# [7] = biological target: Proto-oncogene tyrosine-protein kinase receptor Ret (Homo sapiens, UniProt P07949)
# Description: Binding affinity to recombinant human RET (713 to 1014 residues) expressed in bacterial expression system by Kinomescan method
# MV4-11 [8] = assay: Induction of apoptosis in human MV4-11 cells assessed as necrotic cells at 20 nM incubated for 48 hrs by annexin V and 7-AAD staining based flow cytometry analysis (reference value: 0.91 %); format: functional
# [9] = AUC in Sprague-Dawley rat at 5 mg/kg, iv; format: ADME, organism-based; conditions: in vivo
# [10] = Half life in Sprague-Dawley rat at 25 mg/kg, po; format: ADME, organism-based; conditions: in vivo
# MV4-11 [11] = assay: Induction of cell cycle arrest in human MV4-11 cells assessed as S phase at 100 nM incubated for 48 hrs by propidium iodide staining based flow cytometry analysis (reference value: 20.14 %); format: functional
# [12] = biological target: T1, Receptor-type tyrosine-protein kinase FLT3 (Homo sapiens, UniProt P36888)
# T1 sequence (P36888 whole entry): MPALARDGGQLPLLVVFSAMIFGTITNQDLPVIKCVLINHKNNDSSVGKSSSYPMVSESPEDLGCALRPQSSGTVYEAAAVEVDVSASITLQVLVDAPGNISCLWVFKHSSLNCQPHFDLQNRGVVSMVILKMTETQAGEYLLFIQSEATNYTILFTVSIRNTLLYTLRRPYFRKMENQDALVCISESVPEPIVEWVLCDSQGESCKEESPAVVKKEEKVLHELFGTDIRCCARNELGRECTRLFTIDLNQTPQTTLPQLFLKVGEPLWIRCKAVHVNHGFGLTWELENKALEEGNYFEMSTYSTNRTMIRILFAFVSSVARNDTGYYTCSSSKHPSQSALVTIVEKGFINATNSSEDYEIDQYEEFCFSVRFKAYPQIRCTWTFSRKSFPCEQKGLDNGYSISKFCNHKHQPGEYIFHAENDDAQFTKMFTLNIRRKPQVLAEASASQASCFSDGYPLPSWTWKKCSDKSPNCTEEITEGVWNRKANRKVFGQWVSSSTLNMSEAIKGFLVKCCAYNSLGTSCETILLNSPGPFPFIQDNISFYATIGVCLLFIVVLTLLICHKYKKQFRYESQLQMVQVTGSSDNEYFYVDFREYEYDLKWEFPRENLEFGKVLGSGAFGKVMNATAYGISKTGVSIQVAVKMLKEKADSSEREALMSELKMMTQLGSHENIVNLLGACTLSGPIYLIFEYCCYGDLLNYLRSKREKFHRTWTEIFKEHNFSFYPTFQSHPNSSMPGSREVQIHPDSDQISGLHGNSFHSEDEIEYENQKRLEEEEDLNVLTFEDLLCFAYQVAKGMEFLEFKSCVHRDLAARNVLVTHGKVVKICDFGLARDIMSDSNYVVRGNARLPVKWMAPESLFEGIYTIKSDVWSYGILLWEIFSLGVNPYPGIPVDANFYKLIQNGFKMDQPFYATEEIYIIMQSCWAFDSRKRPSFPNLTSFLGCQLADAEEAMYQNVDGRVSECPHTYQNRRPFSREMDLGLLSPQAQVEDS
# Description: Binding affinity to recombinant human FLT3 (592 to 969 residues) expressed in bacterial expression system by Kinomescan method
# [13] = Half life in Sprague-Dawley rat at 5 mg/kg, iv; format: ADME, organism-based; conditions: in vivo
# MV4-11 [14] = assay: Antitumor activity at human MV4-11 cells xenografted in CB17-SCID mouse assessed as tumor growth inhibition at 40 mg/kg, po administered for 10 days and measured on day 10 relative to control; format: functional; conditions: MV4-11, po, 240 h, read-out: TGI
# NB-4 = assay: cells; conditions: Homo sapiens, NB-4, 72 h
# Description: Cytotoxicity against human NB4 cells assessed as reduction in cell viability incubated for 72 hrs by CCK8 assay
# [15] = biological target: Receptor-type tyrosine-protein kinase FLT3 (Homo sapiens, UniProt P36888, ITD); format: cell-based, Sf9
# [16] = biological target: Receptor-type tyrosine-protein kinase FLT3 (Homo sapiens, UniProt P36888, D835V/ITD)
# Description: Binding affinity to recombinant human FLT3 ITD/D835V double mutant expressed in bacterial expression system by Kinomescan method
# MV4-11 [17] = assay: Induction of apoptosis in human MV4-11 cells assessed as early apoptotic cells at 4 nM incubated for 48 hrs by annexin V and 7-AAD staining based flow cytometry analysis (reference value: 6.36 %); format: functional
# MV4-11 [18] = assay: Induction of cell cycle arrest in human MV4-11 cells assessed as G0/G1 phase at 20 nM incubated for 48 hrs by propidium iodide staining based flow cytometry analysis (reference value: 54.82 %); format: functional
# [19] = Tmax in Sprague-Dawley rat at 25 mg/kg, po; format: ADME, organism-based; conditions: in vivo
# MV4-11 [20] = assay: Induction of cell cycle arrest in human MV4-11 cells assessed as reduction in CDK2 expression at 0.16 to 100 nM by Western blot analysis; format: functional, cell-based
# MV4-11 [21] = assay: Induction of cell cycle arrest in human MV4-11 cells assessed as G0/G1 phase at 4 nM incubated for 48 hrs by propidium iodide staining based flow cytometry analysis (reference value: 54.82 %); format: functional
# [22] = Cmax in Sprague-Dawley rat at 25 mg/kg, po; format: ADME, organism-based; design: dose 25 mg/kg, route oral; conditions: in vivo
# MV4-11 [23] = assay: Induction of cell cycle arrest in human MV4-11 cells assessed as G0/G1 phase at 100 nM incubated for 48 hrs by propidium iodide staining based flow cytometry analysis (reference value: 54.82 %); format: functional
# [24] = Oral bioavailability in Sprague-Dawley rat at 25 mg/kg; format: ADME, organism-based; conditions: in vivo
# [25] = Toxicity in CB17-SCID mouse xenografted with human MV4-11 cells assessed as side effects at 10 to 40 mg/kg, po administered for 10 days and observed on day 10; format: organism-based; conditions: in vivo, 240 h
# MV4-11 [26] = assay: Induction of apoptosis in human MV4-11 cells assessed as necrotic cells at 4 nM incubated for 48 hrs by annexin V and 7-AAD staining based flow cytometry analysis (reference value: 0.91 %); format: functional
# Proto-oncogene tyrosine-protein kinase receptor Ret, sequence (P07949 whole entry): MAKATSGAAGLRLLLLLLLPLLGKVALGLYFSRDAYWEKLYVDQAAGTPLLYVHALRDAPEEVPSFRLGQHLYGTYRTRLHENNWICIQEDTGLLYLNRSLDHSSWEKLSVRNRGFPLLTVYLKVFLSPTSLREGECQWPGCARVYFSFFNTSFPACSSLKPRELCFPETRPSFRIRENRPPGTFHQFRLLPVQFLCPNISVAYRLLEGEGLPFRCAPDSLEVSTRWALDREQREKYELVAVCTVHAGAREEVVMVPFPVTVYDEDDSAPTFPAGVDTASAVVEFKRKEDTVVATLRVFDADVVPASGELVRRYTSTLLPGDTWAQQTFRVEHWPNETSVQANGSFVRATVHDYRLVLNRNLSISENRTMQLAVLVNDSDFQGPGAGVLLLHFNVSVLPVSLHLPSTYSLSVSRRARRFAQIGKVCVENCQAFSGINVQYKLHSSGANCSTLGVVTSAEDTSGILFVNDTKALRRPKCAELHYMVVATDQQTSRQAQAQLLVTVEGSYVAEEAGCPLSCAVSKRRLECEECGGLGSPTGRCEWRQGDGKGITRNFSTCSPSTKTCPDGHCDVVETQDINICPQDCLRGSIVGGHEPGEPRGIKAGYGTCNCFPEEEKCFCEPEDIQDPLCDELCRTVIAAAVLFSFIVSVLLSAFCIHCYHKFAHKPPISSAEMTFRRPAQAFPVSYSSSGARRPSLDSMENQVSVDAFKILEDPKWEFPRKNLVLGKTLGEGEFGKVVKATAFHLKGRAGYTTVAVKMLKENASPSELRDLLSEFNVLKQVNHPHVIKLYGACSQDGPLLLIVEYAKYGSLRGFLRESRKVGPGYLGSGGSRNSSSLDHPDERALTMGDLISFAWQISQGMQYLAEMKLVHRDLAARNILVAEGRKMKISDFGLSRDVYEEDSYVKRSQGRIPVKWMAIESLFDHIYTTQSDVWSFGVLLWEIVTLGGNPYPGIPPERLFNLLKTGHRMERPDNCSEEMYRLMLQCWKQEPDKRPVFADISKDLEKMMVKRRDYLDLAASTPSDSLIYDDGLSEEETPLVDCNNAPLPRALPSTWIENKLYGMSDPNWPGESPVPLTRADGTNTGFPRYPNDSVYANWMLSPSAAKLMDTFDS
compound,measurement,setting,value
CC(C)(C)c1cc(NC(=O)Nc2ccc(-c3cn(-c4ccc(OCCN5CCOCC5)cc4Cl)nn3)cc2)no1,GI50,KG-1,> 3000 nM
same,Activity,MV4-11 [1],Active
same,viability at 0.1 µM,MV4-11 [2],71.6%
same,Activity,MV4-11 [3],5.11%
same,Activity,MV4-11 [4],3.25%
same,inhibition,[5],100%
same,CL/F,[6],10.6 mL/min/kg
same,Kd,[7],24 nM
same,Activity,MV4-11 [8],1.09%
same,AUC,[9],21200 ng·h/mL
same,half-life,[10],6.77 h
same,Activity,MV4-11 [11],4.98%
same,Kd,[12],3.5 nM
same,half-life,[13],5.11 h
same,inhibition in vivo at 40 mg/kg,MV4-11 [14],80.1%
same,GI50,NB-4,> 3000 nM
same,IC50,[15],32.8 nM
same,Kd,[16],10000 nM
same,Activity,MV4-11 [17],7.51%
same,Activity,MV4-11 [18],87.8%
same,Tmax,[19],4 h
same,Activity,MV4-11 [20],Active
same,Activity,MV4-11 [21],66.16%
same,Cmax,[22],3220 ng/mL
same,Activity,MV4-11 [23],89.92%
same,bioavailability,[24],35.8%
same,Activity,[25],Non-Toxic
same,Activity,MV4-11 [26],1.15%
